Experimental data published in publication PMC2787016 (PLoS Pathogens, 2009).
Where a SMILES comes first, the peptide text is derived from it. Where no end group is shown, it is not given here.

Experiments:
HLA-A*0201 = HLA-A*0201 (Homo sapiens, UniProt P04439, D140Y/D185E/D98H/E176V/E277Q/G131W/G231S/I119V/I121R/I166T/I218V/L300P/L318F/N151K/N90K/P208A/P217A/Q86G/Q94H/R138H/R169H/T345S); assay: biochemical; assay type: binding
[1] = system: HLA-restricted target cells pulsed with peptide; assay type: cell-based, HLA-A*1101 transgenic mice
HLA-A*1101 = HLA-A*1101 (Homo sapiens, UniProt P04439, A114D/D185E/E176A/F33Y/L180Q/S129P/T187R); assay: biochemical; assay type: binding
[2] = system: human JA2.1 cells infected with the appropriate rVACV; assay type: cell-based, HLA-A*0201 transgenic mice; set-up: key to Natural processing in human APCs: +, Processed; +/−, weakly processed; −, not processed
[3] = system: peptide-pulsed JA2.1 cells; assay type: cell-based, HLA-A*0201 transgenic mice

Compound	IC50 (HLA-A*0201)	IC50 (HLA-A*1101)	also measured
AMPGVLSYV [MACV NP432–440]	8.4 nM		
ALNIALIAV [WWAV GPC18–26]	27 nM		
CC(C)C[C@H](NC(=O)[C@H](CC(C)C)NC(=O)[C@H](CC(N)=O)NC(=O)[C@H](CC(C)C)NC(=O)[C@H](CS)NC(=O)[C@H](Cc1c[nH]cn1)NC(=O)[C@H](CCCNC(=N)N)NC(=O)[C@H](CS)NC(=O)[C@H](CC(C)C)NC(=O)[C@@H](N)Cc1ccc(O)cc1)C(=O)O [LCMV Z49–58] (H-YLCRHCLNLL-OH)	3.9 nM		
GLSQFTQTV [JUNV NP19–27]	30 nM		
GLLEWIFRA [SABV GPC142–150]	1.2 nM		
AVYNFATCGI [LCMV GPC34–43]	137 nM		
LVTFLLLCGR [LASV GPC46–55]		> 5000 nM	% of Epitope response [1]: 147%
SSIIRSLPK [WWAV NP439–447]		2.5 nM	
GLLQFIVFL [WWAV GPC42–50]	< 0.05 nM		Natural processing in human APCs [2]: +; Recognition of rVACV-infected human target cells by peptide-primed CD8+ T cells [2]: robust; Identified as CD8+ T cell epitope after rVACV infection [3]: identified
RTAPPSLYGR [MACV Z27–36]		8.9 nM	
STYYVHENK [SABV GPC90–98]		6 nM	
LVSFLLLAGR [LCMV GPC46–55]		70 nM	
TVIKTLLEV [WWAV NP274–282]	276 nM		
AINIALIAV [SABV GPC18–26]	834 nM		
SIQKNTIFK [MACV NP82–90]		5.5 nM	
GLSQFTHTV [MACV NP19–27]	18 nM		
TTYLGPLSCK [LCMV Z24–33]		2.8 nM	
ATVKNVVLR [GTOV L1977–1985]		54 nM	
SIINHKFCNL [LASV GPC111–120]	2120 nM		
ALNIALVAV [JUNV GPC18–26]	79 nM		
LLPDALLFTL [SABV NP547–556]	77 nM		
FTNDSIISH [LCMV GPC112–120]		38 nM	
KCLNIMLGK [SABV Z64–72]		678 nM	
SSQRDTILK [SABV NP82–90]		9.3 nM	
